One assay deals with T1, TrkC (Homo sapiens, UniProt Q16288).
T1 construct: expressed in transfected cells; host or cells: NIH/3T3 (TrkC-NIH/3T3)
In words: Cell-associated fluorescence saturation binding, TrkC-NIH/3T3 cells. As to conditions: 2.5 h, with and without 0.2 nM NT-3. How it is done:
FIG. 2: 5c(i) binds to TrkB and TrkC receptors. Transfected cell lines that are Trk positive cells (TrkB-HEK293 and TrkC-NIH/3T3) and non-transfected cell lines that are Trk negative cells (HEK293 and NIH/3T3) were seeded approximately 2,000 cells/well in a 96-well plate and incubated for 24 hours. The cells were treated with a serial dilution of compound (0, 10, 25, 50, 100, 200, 500, and 1000 nM) in serum-free media (SFM) with and without A) 0.6 nM of BDNF (TrkB-HEK293 and HEK293) and B) 0.2 nM of NT-3 (TrkC-NIH/3T3 and NIH/3T3) for 2.5 h. After that, the cells were washed with PBS once to remove unbound compounds and dissolved in 1% (w/v) aqueous sodium dodecyl sulfate. Cell-associated fluorescence was then determined by measuring the emission of the resulting solution upon λex (540/25 nm) and λem (620/40 nm) using Agilent BioTek Synergy H4 Hybrid Microplate Reader. Kd was calculated by GraphPad Prism 9 using Binding saturation (One site—Specific binding).
Transfected cell lines that are Trk positive cells (TrkA-HeLa, TrkB-HEK293, and TrkC-NIH/3T3) and non-transfected cell lines that are Trk negative cells (HeLa, HEK293, and NIH/3T3) were seeded at 2,000 cells/well in a 96-well plate (0.32 cm^2 growth area) and incubated inside a 5% CO2 incubator at 37° C. for 24 hours. […] The dissociation constant (Kd) was calculated using binding saturation (One site—Specific binding).

For assay [1], the system named is adult cortical neurons on astrocytes. Kind of assay: Neurons plated on 5c(i)-pretreated astrocytes. It counts as cell-based, mouse. The following applies: astrocytes cultured with 5c(i) 2 days, 5c(i) removed, neurons 2DIV. How it is done: (§1) FIGS. 4A-4D: 5c(i) induces Synapsin I production and reduces C3 and GSK-3s expression from astrocytes promoting neuron survival and neurite growth. Primary adult cortical astrocytes from 6-month-old male mice were incubated with 5 μM 5c(i) for 3 days. Graph represents mean±SEM of percent change in fluorescent intensity (Synapsin I and C3) or chemiluminescence (GSK-3β) relative to Vehicle (4A and 4D). Images represent the 4B) Vehicle and 4C) 5 μM 5c(i) treated groups stained with Synapsin I and DAPI. D) Cortical astrocytes from 6-month-old male mice were plated and treated with 5c(i) or Vehicle for 2 days. Cells were then washed and cortical neurons from 6-month-old male mice were added on top of the astrocytes. […] Scale bar=50 μm.
(§2) To determine if 5c(i) can modulate astrocytes, adult astrocytes from 6-month-old male mice were treated with 5c(i) for 3 days and stained with Synapsin I and C3 to measure changes in fluorescent intensity or western blot was conducted on the cell lysate to assess changes in GSK-3β expression (FIG. 4). […] To determine if 5c(i) treated astrocytes can directly benefit neuronal recovery, astrocytes were cultured with 5c(i) for 2 days before removing 5c(i) from the culture and plating adult neurons on top of the astrocytes for 2DIV, resulting in increased neuron survival and neurite growth. […]

Another assay has as its system C3. Kind of assay: Astrocyte C3 staining (fluorescent intensity). It counts as cell-based, mouse. The following applies: astrocytes from 6-month-old male mice, 5 μM, 3 days. The procedure:
as §1, §2

Results on one substance are retold here after patent US20260042801A1, “COMPOSITIONS AND METHODS FOR DYE-BOUND CYCLIZED PEPTIDES FOR MEDICAL USE” (The Texas A&M University System, priority 2022, published 2026).

T1 sequence (Q16288 32-839, species assumed): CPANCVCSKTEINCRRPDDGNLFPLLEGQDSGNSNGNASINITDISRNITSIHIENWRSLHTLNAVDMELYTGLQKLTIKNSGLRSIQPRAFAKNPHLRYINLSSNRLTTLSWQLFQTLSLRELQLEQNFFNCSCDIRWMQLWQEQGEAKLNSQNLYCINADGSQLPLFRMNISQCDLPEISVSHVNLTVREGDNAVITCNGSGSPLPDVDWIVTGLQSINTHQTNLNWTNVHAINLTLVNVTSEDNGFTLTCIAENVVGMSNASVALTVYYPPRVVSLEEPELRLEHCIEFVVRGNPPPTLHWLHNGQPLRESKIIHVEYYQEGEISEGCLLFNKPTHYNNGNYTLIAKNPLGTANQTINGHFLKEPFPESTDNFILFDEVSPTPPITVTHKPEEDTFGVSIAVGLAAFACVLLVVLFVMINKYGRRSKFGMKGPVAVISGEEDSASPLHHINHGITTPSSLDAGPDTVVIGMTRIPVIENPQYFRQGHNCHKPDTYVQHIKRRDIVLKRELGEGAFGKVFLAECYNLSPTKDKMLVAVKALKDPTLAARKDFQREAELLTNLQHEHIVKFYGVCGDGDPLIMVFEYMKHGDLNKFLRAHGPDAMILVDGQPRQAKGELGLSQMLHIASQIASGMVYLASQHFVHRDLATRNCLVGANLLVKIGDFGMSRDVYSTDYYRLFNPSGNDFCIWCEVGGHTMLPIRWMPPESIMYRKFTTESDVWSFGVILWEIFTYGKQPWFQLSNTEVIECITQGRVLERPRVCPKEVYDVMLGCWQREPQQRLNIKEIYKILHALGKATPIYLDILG

For the substance “C-DIRG-C BODIPY® (fluorescent dye) [5c(i)]”, the “affinity for TrkC (Kd)” value on TrkC was “low nanomolar affinity”. Further, in assay [1], the “neurite growth on pretreated astrocytes” value was “increased” and the “neuron survival on pretreated astrocytes” value was “increased”. In addition, in the assay on C3, the C3 expression result is recorded as “reduction”.
